For series [1] the following is noted: clinical trials; affecting taste sensation via the tongue; cited from earlier work.
In a further series the target is T1, human P2X2/3 receptors (Homo sapiens, UniProt P56373+Q9UBL9).
T1 construct: expressed in transfected cells; host or cells: human astrocytoma 1321N1 (1312N1 [sic])
T1 sequence (P56373 1-397): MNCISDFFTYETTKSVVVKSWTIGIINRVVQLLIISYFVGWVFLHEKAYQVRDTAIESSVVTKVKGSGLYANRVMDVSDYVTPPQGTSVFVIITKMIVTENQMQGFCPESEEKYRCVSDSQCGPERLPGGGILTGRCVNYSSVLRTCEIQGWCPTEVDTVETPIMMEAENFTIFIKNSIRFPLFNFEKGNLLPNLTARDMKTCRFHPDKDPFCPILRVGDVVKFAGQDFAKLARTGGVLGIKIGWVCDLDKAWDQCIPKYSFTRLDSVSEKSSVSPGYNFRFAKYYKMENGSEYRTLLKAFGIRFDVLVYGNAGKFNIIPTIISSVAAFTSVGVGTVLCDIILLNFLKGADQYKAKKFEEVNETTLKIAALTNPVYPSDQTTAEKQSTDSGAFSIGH
T1 sequence (Q9UBL9 1-471): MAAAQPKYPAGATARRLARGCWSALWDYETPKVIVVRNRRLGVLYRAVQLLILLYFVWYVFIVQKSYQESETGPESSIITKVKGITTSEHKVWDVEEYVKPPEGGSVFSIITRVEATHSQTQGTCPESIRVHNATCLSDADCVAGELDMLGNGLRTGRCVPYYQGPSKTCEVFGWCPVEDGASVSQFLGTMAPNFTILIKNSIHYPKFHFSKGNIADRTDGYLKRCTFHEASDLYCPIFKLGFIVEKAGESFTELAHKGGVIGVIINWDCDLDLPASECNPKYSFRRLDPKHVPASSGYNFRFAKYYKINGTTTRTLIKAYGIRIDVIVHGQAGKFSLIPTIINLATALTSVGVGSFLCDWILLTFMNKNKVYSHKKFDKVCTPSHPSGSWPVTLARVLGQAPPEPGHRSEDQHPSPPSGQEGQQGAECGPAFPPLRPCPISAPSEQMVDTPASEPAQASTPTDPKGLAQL
The series is described as follows: Intracellular calcium measurement, antagonist activity at human P2X2/3 receptors (hP2X23 1321N1), Fluo8. Conditions: for IC50: column 4); 1321N1 cells, human P2X2/3, Fluo8, agonist ATP at EC50; read-out: 4) hP2X2/3 IC50 [nM] (1321N1); for hP2X23/hP2X3* Selectivity (1321N1): ratio of column 4) hP2X2/3 to column 3) hP2X3, 1321N1. In kind it is cell-based. Put shortly:
(§1)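 Antagonism was assessed by decrease of the Fluo8 calcium signal after ATP challenge, with ATP dosed at the EC50 of whichever receptor was tested. Stable 1321N1 astrocytoma lines expressed either human P2X3 or both P2X2 and P2X3, and were dye-loaded 60 min before a 10 min compound incubation.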
A general note: A change in cytosolic calcium serves as a functional read-out for many receptors and channels.

Series [2] concerns the target T2, human P2X3 receptor (Homo sapiens, UniProt P56373).
T2 sequence (P56373 1-397): T1 sequence (P56373 1-397)
The series is described as follows: Intracellular calcium measurement to assess antagonist activity at human P2X3 receptors (hP2X3 CHO), photina luminescence. In kind it is cell-based. Also noted: expressed in transfected cells; host or cells: Chinese hamster ovary (CHO) cells. The conditions noted are these: column 2), CHO cells, agonist α,β-methylene-ATP at EC50. Put shortly:
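Antagonism read as lowered photina luminescence after agonist stimulation in recombinant hP2X3/photina CHO cells. Cells seeded one day earlier (30 °C) and reconstituted with 5 μg/ml coelenterazine in 2 mM Ca-tyrode buffer for 3 h at 37 °C before measurement.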

Series [3] deals with T2, human P2X3 receptor. The series is described as follows: Intracellular calcium measurement to assess antagonist activity at human P2X3 receptors (hP2X3 FLIPR). It counts as cell-based. Also noted: expressed in transfected cells; host or cells: human astrocytoma 1321N1 (1312N1 [sic]). The conditions noted are these: head prints (1321N1); read-out: 1) hP2X3 IC50 [nM] (1321N1). Put shortly:
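Human P2X3-expressing […] astrocytoma cells, Fluo-4-loaded, were preincubated with compound 30 min at 37 °C in HBSS/HEPES probenecid buffer (0.5 mM CaCl2, pH 7.4, 1% DMSO final). Agonist-evoked peak fluorescence over 90 s was normalised to DMSO and control wells; IC50 fitted from triplicates.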

Series [4] concerns the target T2, human P2X3 receptor. The series is described as follows: Intracellular calcium measurement, antagonist activity at human P2X3 receptors (hP2X3 1321N1), Fluo8. The conditions noted are these: column 3); 1321N1 cells, human P2X3, Fluo8, agonist ATP at EC50. In kind it is cell-based. Details: expressed in transfected cells; host or cells: human astrocytoma 1321N1 (1312N1 [sic]). Put shortly: as §1

Turning to `COc1cc(C(C)C)c(Oc2cnc(N)nc2N)cc1S(N)(=O)=O` [AF-219], the “taste disturbances in treated subjects” value in series [1] is recorded as “leads to taste disturbances”.

As for `C[C@H](O)CN1Cc2c(n(CC(=O)Nc3ccc(F)cn3)c3cc(C(C)(C)C)nn3c2=O)C1=O` [Example 54], the IC50 on human P2X2/3 receptors was above 32000 nM; at human P2X3 receptor [2], 155 nM; on human P2X3 receptor [3] it was 215 nM; at human P2X3 receptor [4] it was 263 nM. Also, at human P2X2/3 receptors, the “hP2X23/hP2X3* Selectivity (1321N1)” value was above 122.

`Cc1cc2n(CC(=O)Nc3ccc(F)cn3)c3c(c(=O)n2n1)CN([C@H](C)C1CC1)C3=O` [Example 55]: the IC50 on human P2X2/3 receptors amounted to 10800 nM; at human P2X3 receptor [2], 195 nM; at human P2X3 receptor [3] it was 104 nM; on human P2X3 receptor [4] it was 117 nM. Further, the “hP2X23/hP2X3* Selectivity (1321N1)” value at human P2X2/3 receptors amounted to 93.

In the case of `CC(C)(C)c1cc2n(CC(=O)Nc3ccc(F)cn3)c3c(c(=O)n2n1)CN(CCO)C3=O` [Example 135, 2-[2-tert-butyl-6-(2-hydroxyethyl)-5,8-dioxo-5,6,7,8-tetrahydro-4H-pyrazolo[1,5-a]pyrrolo[3,4-d]pyrimidin-4-yl]-N-(5-fluoropyridin-2-yl)acetamide], the IC50 on human P2X2/3 receptors is 6850 nM; on human P2X3 receptor [2], 59 nM; on human P2X3 receptor [3], 40 nM; on human P2X3 receptor [4], 119 nM. Moreover, at human P2X2/3 receptors, the “hP2X23/hP2X3* Selectivity (1321N1)” value is 58.

Turning to `CC(C)(C)c1cc2n(CC(=O)Nc3ccc(F)cn3)c3c(c(=O)n2n1)CN(CCN1CCOCC1)C3=O` [Example 138, 2-{2-tert-butyl-6-[2-(morpholin-4-yl)ethyl]-5,8-dioxo-5,6,7,8-tetrahydro-4H-pyrazolo[1,5-a]pyrrolo[3,4-d]pyrimidin-4-yl}-N-(5-fluoropyridin-2-yl)acetamide], the IC50 at human P2X2/3 receptors is 9150 nM; on human P2X3 receptor [2] it was 32 nM; at human P2X3 receptor [3], 56 nM; on human P2X3 receptor [4], 86 nM. The “hP2X23/hP2X3* Selectivity (1321N1)” value on human P2X2/3 receptors turned out to be 107.

With `CN(C)CCN1Cc2c(n(CC(=O)Nc3ccc(F)cn3)c3cc(C(C)(C)C)nn3c2=O)C1=O` [Example 139, 2-{2-tert-butyl-6-[2-(dimethylamino)ethyl]-5,8-dioxo-5,6,7,8-tetrahydro-4H-pyrazolo[1,5-a]pyrrolo[3,4-d]pyrimidin-4-yl}-N-(5-fluoropyridin-2-yl)acetamide], the IC50 at human P2X2/3 receptors was above 32000 nM; at human P2X3 receptor [2], 420 nM; at human P2X3 receptor [3], 237 nM; on human P2X3 receptor [4], 400 nM. The “hP2X23/hP2X3* Selectivity (1321N1)” value at human P2X2/3 receptors is above 80.

The values above are taken from patent US11319324B2, “Pyrazolo-pyrrolo-pyrimidine-dione derivatives as P2X3 inhibitors” (Bayer Aktiengesellschaft, priority 2017, dated 2022).
